The values that follow come from patent publication US11149031B2, “Substituted N-(3-fluoropropyl)-pyrrolidine compounds, processes for their preparation and therapeutic uses thereof” (SANOFI, priority 2016, dated 2021).

For test [1], the system named is MCF7 cells expressing mutant estrogen receptor Tyr 537 Ser. As to the kind of experiment: Test B: cell proliferation/viability assay (CellTiter-Glo) on MCF7 Tyr 537 Ser mutant. It counts as cell-based. To be noted: Homo sapiens, MCF7, 168 h, MCF7 cells expressing ER Tyr 537 Ser mutant, 7 days of compound exposure, read-out: proliferation MCF7 Y537S IC50. The gist of the method:
(§1)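 Seed cells in phenol red-free MEM plus 5% charcoal dextran-stripped FBS. Next day add compound, 9-point 1:5 series, 3-0.000001 μM final. After 7 days, add CellTiter-Glo, read luminescence, and normalise to untreated after subtracting cell-free background.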
(In general: Cellular ATP, detected with luciferase, serves as a proxy for viable cell number.)

The test system of test [2] is MCF7 cells expressing mutant estrogen receptor Asp 538 Gly. As to the kind of experiment: Test B: cell proliferation/viability assay (CellTiter-Glo) on MCF7 Asp 538 Gly mutant. In kind it is cell-based. Conditions: Homo sapiens, MCF7, 168 h, MCF7 cells expressing ER Asp 538 Gly mutant, 7 days of compound exposure, read-out: proliferation MCF7 D538G IC50. The gist of the method:
as §1

In test [3] the target is ERα in MCF7 cells (Homo sapiens (Human), UniProt P03372). As to the kind of experiment: Test C: estrogen receptor degradation activity, ERα in cell western assay in MCF7 cells. It counts as cell-based. To be noted: for DC50: 4 hours post compound addition, ERα in cell western, read-out: Degradation IC50; for % Degradation at 3 μM: 4 hours, relative to fulvestrant. The gist of the method:
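ERα level is read as integrated green fluorescence, with DNA taken from red Syto-64 signal, after MCF7 cells are exposed to compound for 4 hours. Cells grow in hormone-depleted medium (5% charcoal-dextran stripped FBS, no phenol red); fulvestrant at 0.1 μM is the positive control.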

The subject of test [4] is MCF7 cells (breast tumor cells) WT. As to the kind of experiment: Test B: cell proliferation/viability assay (CellTiter-Glo) on MCF7 WT. In kind it is cell-based. Conditions: Homo sapiens, MCF7, 168 h, 7 days of compound exposure. The gist of the method: as §1
The target of test [5] is His6-ERα298-554 WT (ERα ligand-binding domain) (Homo sapiens (Human), UniProt P03372). As to the kind of experiment: Test A: biochemical antagonist activity, LanthaScreen TR-FRET ERα coactivator assay, WT. Conditions: read-out: Antagonism WT IC50. The gist of the method:
(§2)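 TR-FRET 520:495 nm emission ratio read after overnight room-temperature incubation; IC50 derived by 4-parameter logistic fit. Mix: 0.5 nM receptor LBD, 0.5 nM Tb-His6 antibody, 250 nM PGC1a peptide, 3 nM or 10 nM estradiol, pH 7.4 phosphate buffer.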
(Time-resolved FRET reads energy transfer from a long-lived donor to a nearby acceptor.)

Test [6] addresses His6-ERα298-554 Y537S mutant (ERα ligand-binding domain) (Homo sapiens (Human), UniProt P03372, Y537S). As to the kind of experiment: Test A: biochemical antagonist activity, LanthaScreen TR-FRET ERα coactivator assay, Y537S mutant. Conditions: read-out: Antagonism Y537S IC50. In a few lines:
as §2

The target of test [7] is His6-ERα298-554 D538G mutant (ERα ligand-binding domain) (Homo sapiens (Human), UniProt P03372, D538G). As to the kind of experiment: Test A: biochemical antagonist activity, LanthaScreen TR-FRET ERα coactivator assay, D538G mutant. To be noted: read-out: Antagonism D538G IC50. In a few lines:
as §2

Where [8] appears, read: asterisk (*): protocol using 10 nM estradiol.

Read-outs that look alike come from different tables or passages of the source. A value given as a limit tells only on which side of the number the result lay.

Chain of His6-ERα298-554 Y537S mutant (ERα ligand-binding domain) (P03372 298-554 Y537S): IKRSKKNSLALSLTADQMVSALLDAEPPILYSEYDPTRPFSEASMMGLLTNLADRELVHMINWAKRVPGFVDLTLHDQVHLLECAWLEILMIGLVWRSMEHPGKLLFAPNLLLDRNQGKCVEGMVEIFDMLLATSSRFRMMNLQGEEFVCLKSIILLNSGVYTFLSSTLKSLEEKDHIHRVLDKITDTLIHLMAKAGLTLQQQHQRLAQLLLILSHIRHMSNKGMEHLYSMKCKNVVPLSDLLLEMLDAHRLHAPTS
Chain of His6-ERα298-554 WT (ERα ligand-binding domain) (P03372 298-554): as the sequence (P03372 298-554 Y537S) above, with S240Y counted along it
Chain of His6-ERα298-554 D538G mutant (ERα ligand-binding domain) (P03372 298-554 D538G): as the sequence (P03372 298-554 Y537S) above, with S240Y, D241G counted along it
Chain of ERα in MCF7 cells (P03372 whole entry): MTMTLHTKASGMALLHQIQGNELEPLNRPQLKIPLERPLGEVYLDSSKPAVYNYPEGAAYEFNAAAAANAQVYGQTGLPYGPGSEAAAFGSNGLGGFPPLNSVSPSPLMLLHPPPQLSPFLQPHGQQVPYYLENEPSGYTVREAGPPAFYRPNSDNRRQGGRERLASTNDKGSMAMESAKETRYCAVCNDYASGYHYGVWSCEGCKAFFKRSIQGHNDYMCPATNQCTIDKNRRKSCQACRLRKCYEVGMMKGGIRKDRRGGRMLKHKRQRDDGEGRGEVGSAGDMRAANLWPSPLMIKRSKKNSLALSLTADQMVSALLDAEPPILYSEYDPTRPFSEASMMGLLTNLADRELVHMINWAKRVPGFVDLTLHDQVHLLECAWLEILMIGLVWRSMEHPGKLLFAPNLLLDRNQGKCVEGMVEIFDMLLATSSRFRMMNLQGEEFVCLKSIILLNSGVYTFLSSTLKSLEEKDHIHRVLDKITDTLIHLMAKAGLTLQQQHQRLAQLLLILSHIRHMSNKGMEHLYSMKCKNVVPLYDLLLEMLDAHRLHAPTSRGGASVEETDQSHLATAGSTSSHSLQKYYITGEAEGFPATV

Regarding `Oc1ccc2c(c1)OCC(c1ccc(F)cc1Cl)=C2c1ccc(O[C@H]2CCN(CCCF)C2)cc1` [Example 82, 3-(2-chloro-4-fluoro-phenyl)-4-[4-[(3S)-1-(3-fluoropropyl)pyrrolidin-3-yl]oxyphenyl]-2H-chromen-7-ol], the IC50 in test [1] is 18 nM; in test [2], 1 nM; in test [4], 15 nM; in test [5] (setting [8]), 297 nM; in test [6] (setting [8]) it was 2290 nM; in test [7] (setting [8]), over 4000 nM. The DC50 in test [3] was 7 nM. Also, the “% Degradation at 3 μM” value in test [3] stood at 86%.

As to `CC(C)(O)c1ccc(C2=C(c3ccc(O[C@H]4CCN(CCCF)C4)cc3)c3ccc(O)cc3SC2)c(F)c1` [Example 33, 3-[2-fluoro-4-(1-hydroxy-1-methyl-ethyl)phenyl]-4-[4-[(3S)-1-(3-fluoropropyl)pyrrolidin-3-yl]oxyphenyl]-2H-thiochromen-7-ol], the IC50 in test [1] was determined as 22 nM; in test [2], 2 nM; in test [4], 4 nM; in test [5] (setting [8]), 66 nM; in test [6] (setting [8]), 596 nM; in test [7] (setting [8]), 1690 nM. The DC50 in test [3] was found to be 1 nM. For the same compound, the “% Degradation at 3 μM” value in test [3] is listed as 84%.

With `Oc1ccc2c(c1)CCCC(c1ccc(Cl)cc1Cl)=C2c1cnc(O[C@H]2CCN(CCCF)C2)nc1` [Example 238, 6-(2,4-dichlorophenyl)-5-[2-[(3S)-1-(3-fluoropropyl)pyrrolidin-3-yl]oxypyrimidin-5-yl]-8,9-dihydro-7H-benzo[7]annulen-2-ol], the IC50 in test [1] came to 3 nM; in test [2], 0.5 nM; in test [4], 0.3 nM; in test [5] (setting [8]), 3 nM; in test [6] (setting [8]), 33 nM; in test [7] (setting [8]), 59 nM. Also, the DC50 in test [3] came out at 0.5 nM. The “% Degradation at 3 μM” value in test [3] is 87%.

Take `Cc1ccc(C2=C(c3ccc(O[C@H]4CCN(CCCF)C4)cc3)c3ccc(O)cc3OCC2)c(F)c1` [Example 96, 4-(2-fluoro-4-methyl-phenyl)-5-[4-[(3S)-1-(3-fluoropropyl)pyrrolidin-3-yl]oxyphenyl]-2,3-dihydro-1-benzoxepin-8-ol]: the IC50 was found to be 16 nM in test [1]; 5 nM in test [2]; 2 nM in test [4]; 7 nM in test [5] (protocol with 3 nM estradiol); 19 nM in test [6] (protocol with 3 nM estradiol); 47 nM in test [7] (protocol with 3 nM estradiol). In addition, in test [3], the DC50 was determined as 0.6 nM. In test [3], the “% Degradation at 3 μM” value is listed as 91%.

As to `Oc1ccc2c(c1)SCCC(c1ccc(OC(F)(F)F)c(F)c1)=C2c1ccc(O[C@H]2CCN(CCCF)C2)cc1` [Example 190, 5-[4-[(3S)-1-(3-fluoropropyl)pyrrolidin-3-yl]oxyphenyl]-4-[3-fluoro-4-(trifluoromethoxy)phenyl]-2,3-dihydro-1-benzothiepin-8-ol], the IC50 in test [1] stood at 6 nM; in test [2] it was 0.8 nM; in test [4] it was 0.2 nM; in test [5] (setting [8]), 39 nM; in test [6] (setting [8]) it was 425 nM; in test [7] (setting [8]), 638 nM. Besides, the DC50 in test [3] turned out to be 0.5 nM. Moreover, the “% Degradation at 3 μM” value in test [3] was found to be 91%.

Consider `CC1(C)Cc2cc(C3=C(c4ccc(O[C@H]5CCN(CCCF)C5)cc4)c4ccc(O)cc4SCC3)ccc2O1` [Example 201, 4-(2,2-dimethyl-3H-benzofuran-5-yl)-5-[4-[(3S)-1-(3-fluoropropyl)pyrrolidin-3-yl]oxyphenyl]-2,3-dihydro-1-benzothiepin-8-ol], for which the IC50 in test [1] was determined as 8 nM; in test [2] it was 1 nM; in test [4], 0.2 nM; in test [5] (setting [8]), 1 nM; in test [6] (setting [8]), 15 nM; in test [7] (setting [8]), 21 nM. For the same compound, in test [3], the DC50 is 0.8 nM. Besides, the “% Degradation at 3 μM” value in test [3] was determined as 85%.

Take `Oc1ccc2c(c1)SCCC(c1ccc(F)nc1F)=C2c1ccc(O[C@H]2CCN(CCCF)C2)cc1` [Example 215, 4-(2,6-difluoro-3-pyridyl)-5-[4-[(3S)-1-(3-fluoropropyl)pyrrolidin-3-yl]oxyphenyl]-2,3-dihydro-1-benzothiepin-8-ol]: the IC50 in test [1] was 3 nM; in test [2], 0.2 nM; in test [4], 0.1 nM; in test [5] (setting [8]) it was 8 nM; in test [6] (setting [8]) it was 86 nM; in test [7] (setting [8]), 190 nM. Further, the DC50 in test [3] came to 0.2 nM. For the same compound, the “% Degradation at 3 μM” value in test [3] is reported as 93%.

For the compound `Cc1c(O)ccc2c1OCCC(c1ccc3cc[nH]c3c1)=C2c1ccc(O[C@H]2CCN(CCCF)C2)cc1` [Example 129, 5-[4-[(3S)-1-(3-fluoropropyl)pyrrolidin-3-yl]oxyphenyl]-4-(1H-indol-6-yl)-9-methyl-2,3-dihydro-1-benzoxepin-8-ol], the IC50 in test [1] was over 999 nM; in test [2], 456 nM; in test [4] it was 245 nM; in test [5] (protocol with 3 nM estradiol), 502 nM; in test [6] (protocol with 3 nM estradiol), 2680 nM; in test [7] (protocol with 3 nM estradiol), over 4000 nM. The DC50 in test [3] is 44 nM. For the same compound, the “% Degradation at 3 μM” value in test [3] came out at 75%.

With `Cc1c(Cl)cccc1C1=C(c2ccc(O[C@H]3CCN(CCCF)C3)cc2)c2ccc(O)c(F)c2OCC1` [Example 105, 4-(3-chloro-2-methyl-phenyl)-9-fluoro-5-[4-[(3S)-1-(3-fluoropropyl)pyrrolidin-3-yl]oxyphenyl]-2,3-dihydro-1-benzoxepin-8-ol], the IC50 in test [1] came out at 11 nM; in test [2] it was 2 nM; in test [4], 0.5 nM; in test [5] (protocol with 3 nM estradiol), 5 nM; in test [6] (protocol with 3 nM estradiol) it was 23 nM; in test [7] (protocol with 3 nM estradiol) it was 38 nM. Further, the DC50 in test [3] was determined as 0.2 nM. Moreover, the “% Degradation at 3 μM” value in test [3] stood at 91%.

Turning to `CCOc1ccc(C2=C(c3ccc(O[C@H]4CCN(CCCF)C4)nc3)c3ccc(O)cc3CCC2)c(F)n1` [Example 240, 6-(6-ethoxy-2-fluoro-3-pyridyl)-5-[6-[(3S)-1-(3-fluoropropyl)pyrrolidin-3-yl]oxy-3-pyridyl]-8,9-dihydro-7H-benzo[7]annulen-2-ol], the IC50 in test [1] was found to be 3 nM; in test [2] it was 0.5 nM; in test [4], 0.3 nM; in test [5] (setting [8]) it was 6 nM; in test [6] (setting [8]), 4 nM; in test [7] (setting [8]) it was 6 nM. Further, the DC50 in test [3] was found to be 0.3 nM. Besides, in test [3], the “% Degradation at 3 μM” value was determined as 89%.

For the compound `Oc1ccc2c(c1)CCCC(c1ccc(Cl)cc1Cl)=C2c1ccc(O[C@H]2CCN(CCCF)C2)nc1` [Example 239, 6-(2,4-dichlorophenyl)-5-[6-[(3S)-1-(3-fluoropropyl)pyrrolidin-3-yl]oxy-3-pyridyl]-8,9-dihydro-7H-benzo[7]annulen-2-ol], the IC50 stood at 3 nM in test [1]; 1 nM in test [2]; 0.3 nM in test [4]; 13 nM in test [5] (setting [8]); 9 nM in test [6] (setting [8]); 13 nM in test [7] (setting [8]). Also, the DC50 in test [3] amounted to 0.6 nM. The “% Degradation at 3 μM” value in test [3] was determined as 87%.

Take `COCCOc1ccc(C2=C(c3ccc(O[C@H]4CCN(CCCF)C4)cc3)c3ccc(O)cc3OCC2)cc1` [Example 146, 5-[4-[(3S)-1-(3-fluoropropyl)pyrrolidin-3-yl]oxyphenyl]-4-[4-(2-methoxyethoxy)phenyl]-2,3-dihydro-1-benzoxepin-8-ol]: the IC50 in test [1] was determined as 69 nM; in test [2] it was 12 nM; in test [4], 6 nM; in test [5] (setting [8]), 51 nM; in test [6] (setting [8]), 845 nM; in test [7] (setting [8]) it was 1170 nM. Besides, the DC50 in test [3] is 2 nM. The “% Degradation at 3 μM” value in test [3] was 86%.

Turning to `CC/C(=C(/c1ccc(O[C@H]2CCN(CCCF)C2)cc1)c1ccc2[nH]ncc2c1)c1ccc(F)cc1Cl` [Example 255, 5-[(E)-2-(2-chloro-4-fluoro-phenyl)-1-[4-[(3S)-1-(3-fluoropropyl)pyrrolidin-3-yl]oxyphenyl]but-1-enyl]-1H-indazole], the IC50 turned out to be 6 nM in test [1]; 0.9 nM in test [2]; 0.1 nM in test [4]; 15 nM in test [5] (setting [8]); 140 nM in test [6] (setting [8]); 190 nM in test [7] (setting [8]). Further, the DC50 in test [3] stood at 0.6 nM. For the same compound, in test [3], the “% Degradation at 3 μM” value is 92%.
